Assay results from ChEMBL document CHEMBL1201862, “PubChem BioAssay data set” (2004).
Counter-ions that a name gives are not always drawn.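 96-well plates; 48 h exposure; 5 concentrations. Endpoints by linear interpolation between flanking doses. Not reached: highest tested concentration assigned. GI50: concentration for 50% inhibition of growth.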 Activity calls are given as the source filed them. Rule as the data show it: active = GI50 up to about 1.1 µM and inactive = higher.

How the values were obtained:
Assay in all cases: NCI-60 cell line screen, 48 h
[1] = test system: DLD-1
[2] = test system: DMS-114
[3] = test system: HOP-18
[4] = test system: KM-20L2
[5] = test system: LXFL 529
[6] = test system: M19-MEL
[7] = test system: RXF 631
[8] = test system: SNB-78
[9] = test system: XF498

O=C1/C(=C/c2ccccc2)CCCC/C1=C\c1ccccc1
GI50 [1]: 34.2 µM (inactive) | GI50 [2]: 42.5 µM (inactive) | GI50 [3]: > 100 µM (inactive) | GI50 [4]: 31 µM (inactive) | GI50 [5]: 55.2 µM (inactive) | GI50 [6]: 48.5 µM (inactive) | GI50 [7]: 52.8 µM (inactive) | GI50 [8]: > 100 µM (inactive) | GI50 [9]: 54.5 µM (inactive)

c1cc2c(cc1C1OCC3C(c4ccc5c(c4)OCO5)OCC13)OCO2 (configuration not stated)
GI50 [1]: 65.3 µM (inactive) | GI50 [2]: 40.4 µM (inactive) | GI50 [3]: > 100 µM (inactive) | GI50 [4]: 35.8 µM (inactive) | GI50 [5]: 37.8 µM (inactive) | GI50 [6]: 51.2 µM (inactive) | GI50 [8]: > 100 µM (inactive) | GI50 [9]: 28.8 µM (inactive)

COC(=O)CC1NC(=O)[C@@H]1C(C)O (some centres not stated)
GI50 [1]: > 10 µM (inactive) | GI50 [2]: > 100 µM (inactive) | GI50 [4]: > 100 µM (inactive) | GI50 [5]: > 100 µM (inactive) | GI50 [6]: > 100 µM (inactive) | GI50 [9]: > 100 µM (inactive)

Cc1ccc(N(C(=O)CC(=O)NN)C(=O)c2ccccc2Cl)cc1
GI50 [1]: > 100 µM (inactive) | GI50 [2]: > 100 µM (inactive) | GI50 [3]: > 100 µM (inactive) | GI50 [4]: > 100 µM (inactive) | GI50 [5]: > 100 µM (inactive) | GI50 [6]: > 100 µM (inactive) | GI50 [7]: > 100 µM (inactive) | GI50 [8]: > 100 µM (inactive) | GI50 [9]: > 100 µM (inactive)

CCC(O)(c1ccc(OC)cc1)C(c1ccc(OCc2ccccc2)cc1)c1ccc(OCc2ccccc2)cc1 (configuration not stated)
GI50 [1]: > 100 µM (inactive) | GI50 [2]: > 100 µM (inactive) | GI50 [4]: > 100 µM (inactive) | GI50 [5]: > 100 µM (inactive) | GI50 [6]: > 100 µM (inactive) | GI50 [7]: > 100 µM (inactive) | GI50 [8]: > 100 µM (inactive) | GI50 [9]: > 100 µM (inactive)

O=C1c2ccccc2C(=O)c2sc(Nc3ccc(Cl)cc3)nc21
GI50 [1]: 1.78 µM (inactive) | GI50 [2]: 1.82 µM (inactive) | GI50 [3]: 2.24 µM (inactive) | GI50 [4]: 13.5 µM (inactive) | GI50 [5]: 1.69 µM (inactive) | GI50 [6]: 0.388 µM (active) | GI50 [8]: 3.49 µM (inactive) | GI50 [9]: 2.16 µM (inactive)

Brc1c2nc3ccccc3nc2n2ccc3ccccc3c12
GI50 [1]: > 100 µM (inactive) | GI50 [2]: > 100 µM (inactive) | GI50 [4]: > 100 µM (inactive) | GI50 [5]: > 100 µM (inactive) | GI50 [6]: > 100 µM (inactive) | GI50 [8]: > 100 µM (inactive) | GI50 [9]: > 100 µM (inactive)

CC1=Nc2c(ccc3c2C(=O)c2ccccc2C3=O)NC(c2ccncc2)C1 (configuration not stated)
GI50 [1]: 29.4 µM (inactive) | GI50 [2]: 7.74 µM (inactive) | GI50 [3]: > 10 µM (inactive) | GI50 [4]: > 10 µM (inactive) | GI50 [5]: > 10 µM (inactive) | GI50 [6]: > 10 µM (inactive) | GI50 [7]: 36.6 µM (inactive) | GI50 [8]: > 10 µM (inactive) | GI50 [9]: > 100 µM (inactive)

COC1=C(OC)CCC(/C(C#N)=C/c2ccc(OC)c(OC)c2)=C1
GI50 [1]: > 100 µM (inactive) | GI50 [2]: 31.6 µM (inactive) | GI50 [3]: > 100 µM (inactive) | GI50 [4]: > 100 µM (inactive) | GI50 [5]: > 100 µM (inactive) | GI50 [6]: > 100 µM (inactive) | GI50 [7]: > 100 µM (inactive) | GI50 [8]: 53.2 µM (inactive)

COC(=O)CC(c1ccccc1)C1(c2ccccc2)SCCS1 (configuration not stated)
GI50 [1]: > 290 µM (inactive) | GI50 [2]: 121 µM (inactive) | GI50 [3]: > 290 µM (inactive) | GI50 [4]: > 290 µM (inactive) | GI50 [5]: 92.7 µM (inactive) | GI50 [6]: > 290 µM (inactive) | GI50 [7]: 161 µM (inactive) | GI50 [9]: > 290 µM (inactive)

COC(=O)CC(NC(=O)OCc1ccccc1)C(C(C)=O)C(=O)OCc1ccccc1 (configuration not stated)
GI50 [1]: > 31.6 µM (inactive) | GI50 [2]: > 31.6 µM (inactive) | GI50 [3]: > 31.6 µM (inactive) | GI50 [4]: > 31.6 µM (inactive) | GI50 [5]: 5.48 µM (inactive) | GI50 [6]: > 31.6 µM (inactive) | GI50 [7]: > 10 µM (inactive) | GI50 [8]: > 31.6 µM (inactive) | GI50 [9]: > 10 µM (inactive)

Cc1ccccc1NC(=O)C(=O)CC(=O)c1sc(-n2nc(-c3ccccc3)cc2-c2ccccc2)nc1C
GI50 [1]: > 100 µM (inactive) | GI50 [2]: > 100 µM (inactive) | GI50 [4]: > 100 µM (inactive) | GI50 [5]: > 100 µM (inactive) | GI50 [6]: > 100 µM (inactive) | GI50 [7]: > 100 µM (inactive) | GI50 [8]: > 100 µM (inactive)

CCCCN(CCCC)C(=O)/C(CC(=O)c1cccc2ccccc12)=N\NC(=O)c1cc2ccccc2cc1O
GI50 [1]: 23.4 µM (inactive) | GI50 [4]: 22.1 µM (inactive) | GI50 [5]: 27.3 µM (inactive) | GI50 [6]: 20.4 µM (inactive) | GI50 [7]: 26.7 µM (inactive) | GI50 [8]: 24.7 µM (inactive) | GI50 [9]: 20 µM (inactive)

C=CCC1(CN(C)C)CC/C(=C\c2ccc3c(c2)OCO3)C1=O (configuration not stated)
GI50 [1]: 27.7 µM (inactive) | GI50 [3]: > 100 µM (inactive) | GI50 [4]: 28.9 µM (inactive) | GI50 [5]: 34.5 µM (inactive) | GI50 [6]: 39.6 µM (inactive) | GI50 [7]: 25.4 µM (inactive) | GI50 [8]: > 100 µM (inactive)

COC1C=COC2(C)Oc3c(C)c(O)c4c(O)c(c(/C=N/N5CCN(N)CC5)c(O)c4c3C2=O)NC(=O)C(C)=CC=CC(C)C(O)C(C)C(O)C(C)C(OC(C)=O)C1C (configuration not stated)
GI50 [1]: 82.6 µM (inactive) | GI50 [2]: 64.4 µM (inactive) | GI50 [4]: > 100 µM (inactive) | GI50 [5]: 63.4 µM (inactive) | GI50 [6]: 42 µM (inactive) | GI50 [8]: 88.1 µM (inactive)

O=C1CCCCCCCCCCC(=O)C2CCOCCOCCOCCC1Cc1cccc(n1)C2
GI50 [1]: > 100 µM (inactive) | GI50 [2]: 77.6 µM (inactive) | GI50 [4]: > 100 µM (inactive) | GI50 [5]: 59.8 µM (inactive) | GI50 [6]: > 100 µM (inactive) | GI50 [7]: 80.4 µM (inactive) | GI50 [8]: 79.6 µM (inactive) | GI50 [9]: 59.7 µM (inactive)

O=C1C(=O)N(c2cc(Cl)ccc2Cl)C(=O)C(=O)C1c1nc2ccccc2s1
GI50 [1]: > 100 µM (inactive) | GI50 [2]: > 100 µM (inactive) | GI50 [4]: > 100 µM (inactive) | GI50 [5]: 82.2 µM (inactive) | GI50 [6]: > 100 µM (inactive) | GI50 [8]: > 100 µM (inactive) | GI50 [9]: > 100 µM (inactive)

OCC(O)COc1c(Cl)cc(Cl)cc1Cl (configuration not stated)
GI50 [1]: > 59.7 µM (inactive) | GI50 [2]: > 100 µM (inactive) | GI50 [3]: > 100 µM (inactive) | GI50 [4]: > 100 µM (inactive) | GI50 [5]: > 90.8 µM (inactive) | GI50 [6]: > 100 µM (inactive) | GI50 [7]: > 100 µM (inactive) | GI50 [8]: > 100 µM (inactive) | GI50 [9]: > 100 µM (inactive)

CCCCN/C(=N\C#N)N(Cc1ccccc1)Cc1ccccc1
GI50 [1]: 19.1 µM (inactive) | GI50 [3]: 39.8 µM (inactive) | GI50 [4]: 20.8 µM (inactive) | GI50 [5]: 16.9 µM (inactive) | GI50 [6]: 18.1 µM (inactive) | GI50 [8]: 18.2 µM (inactive)

CN(C)C(=S)/N=c1\ss/c(=N\C(=S)N(C)C)n1-c1ccc2c(c1)OCO2
GI50 [2]: 5.11 µM (inactive) | GI50 [4]: > 100 µM (inactive)

COc1cc2c[n+](C)c3c4cc(OC)c(OC(C)C)cc4ccc3c2cc1OC
GI50 [1]: > 100 µM (inactive) | GI50 [2]: 5.85 µM (inactive) | GI50 [3]: 49.7 µM (inactive) | GI50 [4]: 62.7 µM (inactive) | GI50 [5]: 7.35 µM (inactive) | GI50 [6]: 18.4 µM (inactive) | GI50 [8]: 50 µM (inactive)

CC1(C)COC(c2ccc(C(F)(F)F)cc2C(O)c2ccc3ccccc3c2)=N1 (configuration not stated)
GI50 [1]: > 10 µM (inactive) | GI50 [2]: > 10 µM (inactive) | GI50 [3]: > 10 µM (inactive) | GI50 [4]: > 10 µM (inactive) | GI50 [5]: > 10 µM (inactive) | GI50 [6]: > 10 µM (inactive) | GI50 [7]: > 100 µM (inactive) | GI50 [8]: 89.3 µM (inactive) | GI50 [9]: 64.3 µM (inactive)

C[n+]1c2ccccc2c(CNC(CCC(N)=O)C(=O)O)c2ccccc21 (configuration not stated)
GI50 [1]: 0.475 µM (active) | GI50 [2]: 0.577 µM (active) | GI50 [3]: 2.09 µM (inactive) | GI50 [4]: 1.1 µM (active) | GI50 [5]: 0.817 µM (active) | GI50 [6]: 2.18 µM (inactive) | GI50 [8]: 6.5 µM (inactive) | GI50 [9]: 2 µM (inactive)

CN(C)CCCOc1ccc(/C=C2/CCC/C(=C/c3ccc(OCCCN(C)C)cc3)C2=O)cc1
GI50 [1]: 1.5 µM (inactive) | GI50 [2]: 1.56 µM (inactive) | GI50 [3]: 3.61 µM (inactive) | GI50 [4]: 0.232 µM (active) | GI50 [5]: 1.89 µM (inactive) | GI50 [8]: 3.25 µM (inactive)

CC1(C)OC(=O)C(c2cccs2)C(=O)O1
GI50 [1]: > 100 µM (inactive) | GI50 [2]: > 100 µM (inactive) | GI50 [3]: > 100 µM (inactive) | GI50 [4]: > 100 µM (inactive) | GI50 [5]: > 100 µM (inactive) | GI50 [8]: > 100 µM (inactive) | GI50 [9]: > 100 µM (inactive)

COC1[C@@H](OC(C)=O)[C@@H](NC(=O)C(Cl)(Cl)Cl)C(I)[C@@H](N2C(=O)c3ccccc3C2=O)[C@H]1OC (some centres not stated)
GI50 [1]: > 100 µM (inactive) | GI50 [2]: > 100 µM (inactive) | GI50 [3]: > 100 µM (inactive) | GI50 [4]: > 100 µM (inactive) | GI50 [5]: > 100 µM (inactive) | GI50 [8]: > 100 µM (inactive)

COc1ccc(/C=C2\CCC(CCN(C)C)(C3=CCCC3)C2=O)cc1 (configuration not stated)
GI50 [1]: 26.4 µM (inactive) | GI50 [2]: 15.6 µM (inactive) | GI50 [3]: 14.1 µM (inactive) | GI50 [4]: 14.1 µM (inactive) | GI50 [5]: 16.7 µM (inactive) | GI50 [6]: 15.1 µM (inactive) | GI50 [8]: 21.8 µM (inactive)

CC(=O)N(O)CCCCCNC(=O)CCC(=O)N(O)CCCCCNC(=O)CCC(=O)N(O)CCCCCN [DEFEROXAMINE HYDROCHLORIDE]
GI50 [1]: 45.3 µM (inactive) | GI50 [2]: 43.4 µM (inactive) | GI50 [3]: 12.7 µM (inactive) | GI50 [4]: 17.8 µM (inactive) | GI50 [5]: 36.4 µM (inactive) | GI50 [6]: 43.8 µM (inactive) | GI50 [7]: 26.9 µM (inactive) | GI50 [8]: > 100 µM (inactive) | GI50 [9]: > 100 µM (inactive)
